# Legend:
# Assay type in all cases: cell-based
# IRAK4 [1] = biological target: T1, IRAK4 (Homo sapiens, UniProt Q9NWZ3); test: IRAK4 Degradation Assay with Human Serum (Karpas299, HTRF/TR-FRET); details: Karpas-299 in human serum, 24 hrs treatment; for DC50: read-out: IRAK4 degradtion with human serum assay DC50; for Dmax: read-out: IRAK4 degradtion with human serum assay Dmax (%)
# T1 construct: endogenous in cells; host or cells: Karpas299
# T1 sequence (Q9NWZ3 1-460): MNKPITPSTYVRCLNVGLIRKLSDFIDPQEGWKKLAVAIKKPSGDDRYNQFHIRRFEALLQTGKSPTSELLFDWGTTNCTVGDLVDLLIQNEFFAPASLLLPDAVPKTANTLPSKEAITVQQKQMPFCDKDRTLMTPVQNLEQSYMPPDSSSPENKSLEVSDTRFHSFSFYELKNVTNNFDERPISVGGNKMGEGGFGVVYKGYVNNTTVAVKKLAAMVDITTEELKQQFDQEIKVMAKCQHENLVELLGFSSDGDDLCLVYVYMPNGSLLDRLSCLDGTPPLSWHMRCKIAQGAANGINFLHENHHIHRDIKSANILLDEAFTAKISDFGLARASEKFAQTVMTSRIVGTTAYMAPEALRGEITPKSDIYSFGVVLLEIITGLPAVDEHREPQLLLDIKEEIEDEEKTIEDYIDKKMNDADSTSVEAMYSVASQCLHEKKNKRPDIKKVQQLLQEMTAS
# Outline: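 Karpas299 cells in human AB serum (0.2 million/well) treated with serial compound dilutions for 24 h. After lysis, IRAK4 quantified by HTRF (overnight antibody incubation at room temperature, 665/620 nm read). Degradation percentage fitted to four-parameter curve to give DC50.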
# IRAK4 [2] = biological target: T1, IRAK4; test: IRAK4 Degradation Assay (Karpas299, HTRF/TR-FRET); details: Karpas-299 cells; for Dmax: maximum percentage of degradation
# Outline: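 Karpas299 cells at 0.2 million per well were exposed to serially diluted compounds for 24 h or 5 h, then lysed. IRAK4 remaining in lysates was quantified by HTRF (665/620 nm) after overnight antibody incubation at room temperature. Percent degradation was fitted to a four-parameter curve to give IC50 (DC50).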
# [3] = tested on: TNF-α production in THP-1 cells; test: TNF-α Production Assay in THP-1 Cells (LPS stimulated); details: Homo sapiens, THP-1, 24 h; for Emax: maximum inhibition, read-out: TNF-α (THP-1) 24 h IMax
# Outline: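 Cells (0.2 million/well) pretreated with compounds for 24 h, then stimulated with LPS at 1 μg/mL final for 24 h. TNF-α in culture supernatant quantified by TR-FRET immunoassay.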
# [4] = tested on: IL-6 production in human PBMC; test: IL-6 Production Assay in Human PBMC (LPS stimulated); details: Homo sapiens, 5 h; for Emax: maximum inhibition, read-out: IL-6 (PBMC) 5 h IMax
# Outline: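 Thawed PBMC were rested overnight at 37 °C, seeded at 0.2 million cells/well and pretreated with compounds for 24 h. They were then stimulated with LPS at 10 ng/mL for 5 h. IL-6 in the supernatant was quantified by TR-FRET.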
# [5] = 24 h treatment, read-out: IRAK4 in Karpas-299 (24 h) Dmax (%)
# [6] = 24 h treatment, read-out: IRAK4 in Karpas-299 (24 h) DC50
# [7] = 5 h treatment, read-out: IRAK4 in Karpas-299 (5 h) Dmax (%)
# [8] = 5 h treatment, read-out: IRAK4 in Karpas-299 (5 h) DC50
Structure (SMILES),DC50 (IRAK4 [1]),Dmax (IRAK4 [1]),Dmax (IRAK4 [2]; [5]),DC50 (IRAK4 [2]; [6]),IC50 [3],Dmax (IRAK4 [2]; [7]),DC50 (IRAK4 [2]; [8]),Emax [3],IC50 [4],Emax [4]
COC[C@@H]1CN([C@H]2CC[C@H](n3cc4cc(NC(=O)c5ccc6cc(C#N)cnn56)c(C(C)(C)O)cc4n3)CC2)CCN1CCc1cc(F)c([C@H]2CCC(=O)NC2=O)c(F)c1 [Example 320],4.1 nM,98%,99%,1 nM,43 nM,,,85%,9.2 nM,65%
"COC[C@H]1CN(CCc2cc(F)c([C@H]3CCC(=O)NC3=O)c(F)c2)CCN1[C@H]1CC[C@H](n2cc3cc(NC(=O)c4ccc5cc(C#N)cnn45)c(C(C)(C)O)cc3n2)CC1 [Example 321, 3-cyano-N-(2-((1R,4r)-4-((R)-4-(4-((R)-2,6-dioxopiperidin-3-yl)-3,5-difluorophenethyl)-2-(methoxymethyl)piperazin-1-yl)cyclohexyl)-6-(2-hydroxypropan-2-yl)-2H-indazol-5-yl)pyrrolo[1,2-b]pyridazine-7-carboxamide]",5.5 nM,98%,96%,1.4 nM,55 nM,,,77%,0.4 nM,58%
"COC[C@H]1CN(CC2CN(c3cc(F)c([C@H]4CCC(=O)NC4=O)c(F)c3)C2)CCN1[C@H]1CC[C@H](n2cc3cc(NC(=O)c4ccc5cc(C#N)cnn45)c(C(C)(C)O)cc3n2)CC1 [Example 322, 3-cyano-N-(2-((1R,4r)-4-((R)-4-((1-(4-((R)-2,6-dioxopiperidin-3-yl)-3,5-difluorophenyl)azetidin-3-yl)methyl)-2-(methoxymethyl)piperazin-1-yl)cyclohexyl)-6-(2-hydroxypropan-2-yl)-2H-indazol-5-yl)pyrrolo[1,2-b]pyridazine-7-carboxamide]",19 nM,101%,97%,0.7 nM,42 nM,98%,12 nM,94%,9.7 nM,81%
"COC[C@@H]1CN(CC2CN(c3cc(F)c([C@H]4CCC(=O)NC4=O)c(F)c3)C2)CCN1[C@H]1CC[C@H](n2cc3cc(NC(=O)c4ccc5cc(C#N)cnn45)c(C(C)(C)O)cc3n2)CC1 [Example 326, 3-cyano-N-(2-((1S,4r)-4-((S)-4-((1-(4-((R)-2,6-dioxopiperidin-3-yl)-3,5-difluorophenyl)azetidin-3-yl)methyl)-2-(methoxymethyl)piperazin-1-yl)cyclohexyl)-6-(2-hydroxypropan-2-yl)-2H-indazol-5-yl)pyrrolo[1,2-b]pyridazine-7-carboxamide]",2.9 nM,95%,100%,0.7 nM,13 nM,97%,1.9 nM,99%,1.9 nM,65%

# Further lines, with some results ahead:
DC50 (IRAK4 [1]),Dmax (IRAK4 [1]),Dmax (IRAK4 [2]; [5]),DC50 (IRAK4 [2]; [6]),IC50 [3],Dmax (IRAK4 [2]; [7]),DC50 (IRAK4 [2]; [8]),Structure (SMILES),Emax [3],IC50 [4],Emax [4]
10 nM,101%,97%,0.6 nM,7.6 nM,97%,1.5 nM,"CC(C)(O)c1cc2nn(C34CC(N5CCN(CC6CN(c7cc(F)c([C@H]8CCC(=O)NC8=O)c(F)c7)C6)CC5)(C3)C4)cc2cc1NC(=O)c1ccc2cc(C#N)cnn12 [Example 332, (R)-3-cyano-N-(2-(3-(4-((1-(4-(2,6-dioxopiperidin-3-yl)-3,5-difluorophenyl)azetidin-3-yl)methyl)piperazin-1-yl)bicyclo[1.1.1]pentan-1-yl)-6-(2-hydroxypropan-2-yl)-2H-indazol-5-yl)pyrrolo[1,2-b]pyridazine-7-carboxamide]",93%,1.4 nM,70%
23 nM,93%,97%,2.4 nM,10 nM,98%,3.9 nM,"CC(C)(O)c1cc2nn(C34CCC(N5CCN(C6CCN(c7cc(F)c([C@H]8CCC(=O)NC8=O)c(F)c7)CC6)CC5)(CC3)CC4)cc2cc1NC(=O)c1ccc2cc(C#N)cnn12 [Example 333, (R)-3-cyano-N-(2-(4-(4-(1-(4-(2,6-dioxopiperidin-3-yl)-3,5-difluorophenyl)piperidin-4-yl)piperazin-1-yl)bicyclo[2.2.2]octan-1-yl)-6-(2-hydroxypropan-2-yl)-2H-indazol-5-yl)pyrrolo[1,2-b]pyridazine-7-carboxamide]",96%,4.7 nM,62%
4.6 nM,99%,96%,1.3 nM,14 nM,96%,0.8 nM,"CC(C)(O)c1cc2nn([C@H]3CC[C@H](N4CCN([C@H]5C[C@H](c6cc(F)c([C@H]7CCC(=O)NC7=O)c(F)c6)C5)CC4)CC3)cc2cc1NC(=O)c1ccc2cc(C#N)cnn12 [Example 364, 3-cyano-N-(2-((1R,4r)-4-(4-((1R,3R)-3-(4-((R)-2,6-dioxopiperidin-3-yl)-3,5-difluorophenyl)cyclobutyl)piperazin-1-yl)cyclohexyl)-6-(2-hydroxypropan-2-yl)-2H-indazol-5-yl)pyrrolo[1,2-b]pyridazine-7-carboxamide]",98%,0.6 nM,74%
2.6 nM,98%,97%,2.3 nM,21 nM,97%,1.9 nM,"Cc1nc(C2CCC(=O)NC2=O)ccc1N1CCC(N2CCN([C@H]3CC[C@H](n4cc5cc(NC(=O)c6ccc7cc(C#N)cnn67)c(C(C)(C)O)cc5n4)CC3)CC2)CC1 (stereo partly shown) [Example 398, 3-cyano-N-(2-((1r,4r)-4-(4-(1-(6-(2,6-dioxopiperidin-3-yl)-2-methylpyridin-3-yl)piperidin-4-yl)piperazin-1-yl)cyclohexyl)-6-(2-hydroxypropan-2-yl)-2H-indazol-5-yl)pyrrolo[1,2-b]pyridazine-7-carboxamide]",97%,2.4 nM,70%

# From patent US20250195513A1, “DEGRADATION OF IRAK4 BY CONJUGATION OF IRAK4 INHIBITORS WITH E3 LIGASE LIGAND AND METHODS OF USE” (BeiGene, Ltd., priority 2022, published 2025)
